For one data set, the target named is T1, TS (Homo sapiens, UniProt P04818).
T1 construct: from tissue; host or cells: subcutaneous Hep G2 xenograft tumour from CD-1 nude mice
The experiment in a line: TS activity in tumor of xenografted mice. It is filed as in vivo, CD-1 nude mice. The settings on record: treated. The method, then:
Initial effects of po 1-mer treatment were noticed after about 5 weeks. Overall, however, tumors continued to grow after this point, but at a slower rate than the control. For instance, at 8 weeks post po 1-mer treatment, the average tumor weight of xenografted human hepatomas in nude CD-1 mice was about 7 g, whereas the average tumor weight of the saline control was about 15 g. Histological analysis was performed after 8 weeks in order to compare the tumors of the control cohort with the tumors of po 1-mer-treated nude mice. […] This weight loss may then be due to the tumor burden, rather than the therapeutic treatment, and was continued through week 8.
After the treatment was completed, tumors were analyzed both histologically and for TS activity. […] Therefore, it can be deduced that increasing the dose of po 1-mer increased the efficacy without increasing systemic toxicity.

The subject of another data set is alpha-fetoprotein (AFP). Briefly: Serum AFP levels in tumor-bearing nude mice. It is filed as in vivo, human. As to conditions: for level of AFP: 15 mg/kg weekly. The source says: Xenotransplanted tumors have been previously shown to be responsive to 5FU chemotherapy as assayed by direct physical measurement of the tumor (Houghton et al., Biochem. Pharmacol., 36, 1285-1289 (1987)), histological changes and biochemical measurements, such as alpha-fetoprotein (AFP) levels (Lemoine et al., Pathol. Biol. (Paris), 47, 903-910 (1999)) and thymidylate synthase levels (Peters et al., J. Clin Oncol., 12, 2035-2042 (1994)). The xenograft tumors in nude mice are a widely used model for tumor studies that allows for direct measurement of the growth of human tumors. Male CD-1 nude mice (6-8 weeks old, 20-22 g in weight) were used for these bioefficacy studies. An injection of 10^8 Hep G2 cells was made subcutaneously into the subcapsular region of each mouse. Mice were observed daily for tumor formation. After tumors emerged, they were measured twice a week in two dimensions with sliding calipers. When the tumors reached a weight of 100 mg in weight as determined by the formula: [(weight, mg)=(length (mm)×width (mm))^2/2], treatment was initiated (Geran et al., Cancer Chemother. Rep., 3, 51-61 (1972)). Initially, mice were treated with 10 mg/kg dose once/week for 8 weeks. Subsequently, separate cohorts of mice were treated with 15 mg/kg weekly for 8 weeks and finally 10 mg/kg twice weekly for 8 weeks. The impact of treatment upon tumor growth was judged by direct measurement as described above. In addition, tumor progression was tracked by serological measurements, such as AFP levels. AFP levels were assayed weekly following each injection. Blood was taken retro-orbitally from each mouse. AFP levels were assayed immunochemically, using kits supplied by Abbott Laboratories (Waukegan, Ill.) and based on the methods of Wang et al. (Cancer Res., 50, 869s-872s (1990)). Measurements of AFP levels were intended to complement direct physical measurement as an indicator of tumor progression. Generally, serum AFP levels behave as if they reflect tumor mass. […]

The structures appear in SMILES notation. Read-outs that look alike come from different tables or passages of the source.
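Wherever % injected dose in LIVER is given: male CD-1 mice given radiolabeled test agent intravenously, organs removed at each time point and dissolved, radioactivity per organ measured by scintillation counting with efficiency correction.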

T1 sequence (P04818 2-313 limits assumed): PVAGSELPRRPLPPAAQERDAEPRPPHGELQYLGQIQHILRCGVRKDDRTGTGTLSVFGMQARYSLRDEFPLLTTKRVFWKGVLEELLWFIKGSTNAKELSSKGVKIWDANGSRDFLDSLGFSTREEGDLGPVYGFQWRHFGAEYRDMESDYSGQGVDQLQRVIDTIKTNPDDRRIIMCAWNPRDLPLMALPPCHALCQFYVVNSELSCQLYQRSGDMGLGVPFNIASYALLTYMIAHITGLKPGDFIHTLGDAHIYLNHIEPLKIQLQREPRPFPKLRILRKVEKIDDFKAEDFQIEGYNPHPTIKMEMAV

Turning to `CC(=O)N[C@H]1[C@H](OCCCCCCNC(=O)CC[C@H](NC(=O)CC[C@H](NC(=O)[C@H](Cc2ccc(O)cc2)NC(=O)C2CCC(CN3C(=O)CC(SCCCCCCOP(=O)(O)OC[C@H]4O[C@@H](n5cc(F)c(=O)[nH]c5=O)C[C@@H]4O)C3=O)CC2)C(=O)NCCCCCCO[C@@H]2O[C@H](CO)[C@H](O)[C@H](O)[C@H]2NC(C)=O)C(=O)NCCCCCCO[C@@H]2O[C@H](CO)[C@H](O)[C@H](O)[C@H]2NC(C)=O)O[C@H](CO)[C@H](O)[C@@H]1O` (some centres unmarked) [po 1-mer, YEE(ahGalNAc)3-SMCC-poFU], the “TS activity, COUNTS/MG PROTEIN” value is 17641 counts/mg protein on TS (weekly 10 mg/kg) and 8591 counts/mg protein on TS (weekly 15 mg/kg). Also, the AFP measurements entry with alpha-fetoprotein (AFP) (10 mg/kg twice weekly, week 6) was “below the limits of detection”. For the same molecule, the “level of AFP” value is given as “less than 200 μg/ml” with alpha-fetoprotein (AFP) (after 3 weeks of treatment) and “below the level of detection” in the data set with alpha-fetoprotein (AFP) (week 8). The “% injected dose in LIVER” value is given as “Fifty-seven” (15 MIN after tail vein i.v.), 25% (60 MIN after tail vein i.v.) and “virtually no” (480 MIN after tail vein i.v.).

Values taken from patent publication US7262177B2, “Conjugates of glycosylated/galactosylated peptide, bifunctional linker, and nucleotidic monomers/polymers, and related compositions and methods of use” (priority 2000, dated 2007).
